In paper PMC8225045, “Chemical Synthesis and Structure-Activity Relationship Study Yield Desotamide a Analogues with Improved Antibacterial Activity” (Marine Drugs, 2021):
In brackets after ≈: the same amount, converted by molar mass. Like-named read-outs stand apart in the source and are kept apart here. Non-standard residues stand in square brackets, D forms with d. Residues, ends and D or L forms follow the SMILES beside them. aIle = CC[C@@H](C)[C@H](N)C(=O)O

What was measured:
[1] = tested on: methicillin-resistant Staphylococcus aureus (MRSA) shhsE1; test: microbe, parasite or virus in culture
Description: (§1) All the synthesized cyclopeptides (7–19) and the desotamide A (1) isolated from S. scopuliridis SCSIO ZJ46 were evaluated for antibacterial activities against a series of Gram-positive pathogens including […] Staphylococcus aureus ATCC29213, Bacillus subtilis BS01, Micrococcus luteus ML01, Enterococcus faecalis ATCC29212; 3 drug-resistant poultry pathogens Staphylococcus simulans LJH13, Enterococcus gallinarum LJH11, Staphylococcus haemolyticus LJH9; 4 clinical methicillin-resistant Staphylococcus aureus (MRSA) shhs-E1, MRSA 16339, MRSA 745524, MRSA 16162. Their antibacterial activities against the […] pathogens Escherichia coli ATCC 13,124 and clinical drug-resistant Klebsiella pneumonia 15580 were also assayed.
(§2) Ampicillin, vancomycin and polymyxin were used as control. The maximum test concentrations for all the compounds were 128 μg/mL.

Bacillus subtilis BS01 = test: microbe, parasite or virus in culture
Description: as §1, §2

[2] = tested on: Enterococcus faecalis ATCC 29212; test: microbe, parasite or virus in culture
Description: as §1, §2

MRSA 16339 = test: microbe, parasite or virus in culture
Description: as §1, §2

MRSA 16162 = test: microbe, parasite or virus in culture
Description: as §1, §2

[3] = tested on: Enterococcus gallinarum LJH11; test: microbe, parasite or virus in culture
Description: as §1, §2

MRSA 745524 = test: microbe, parasite or virus in culture
Description: as §1, §2

[4] = tested on: Staphylococcus aureus ATCC 29213; test: microbe, parasite or virus in culture
Description: as §1, §2

[5] = tested on: Staphylococcus simulans LJH13; test: microbe, parasite or virus in culture
Description: as §1, §2

Micrococcus luteus ML01 = test: microbe, parasite or virus in culture
Description: as §1, §2

[6] = tested on: Staphylococcus haemolyticus LJH9; test: microbe, parasite or virus in culture
Description: as §1, §2

[7] = tested on: Klebsiella pneumoniae 15580
Description: as §1, §2

Gram-positive pathogens = details: for Gram positive antibacterial activity for desotamides (in words): Figure 2; for MIC values against Gram-positive pathogens (summary over the panel): series of Gram-positive pathogens including MRSA, summary of Table 1
Description: as §1, §2

[8] = clinical MRSA shhsE1, two-fold serial dilution, Mueller-Hinton broth, 96-well plate, CLSI-based, maximum test concentration 128 μg/mL
[9] = Bacillus subtilis BS01, two-fold serial dilution, Mueller-Hinton broth, 96-well plate, CLSI-based, maximum test concentration 128 μg/mL
[10] = Enterococcus faecalis ATCC 29212, two-fold serial dilution, Mueller-Hinton broth, 96-well plate, CLSI-based, maximum test concentration 128 μg/mL
[11] = clinical MRSA 16339, two-fold serial dilution, Mueller-Hinton broth, 96-well plate, CLSI-based, maximum test concentration 128 μg/mL
[12] = clinical MRSA 16162, two-fold serial dilution, Mueller-Hinton broth, 96-well plate, CLSI-based, maximum test concentration 128 μg/mL
[13] = Enterococcus gallinarum LJH11, drug-resistant poultry pathogen, two-fold serial dilution, Mueller-Hinton broth, 96-well plate, CLSI-based, maximum test concentration 128 μg/mL
[14] = clinical MRSA 745524, two-fold serial dilution, Mueller-Hinton broth, 96-well plate, CLSI-based, maximum test concentration 128 μg/mL
[15] = Staphylococcus aureus ATCC 29213, two-fold serial dilution, Mueller-Hinton broth, 96-well plate, CLSI-based, maximum test concentration 128 μg/mL
[16] = Staphylococcus simulans LJH13, drug-resistant poultry pathogen, two-fold serial dilution, Mueller-Hinton broth, 96-well plate, CLSI-based, maximum test concentration 128 μg/mL
[17] = Micrococcus luteus ML01, two-fold serial dilution, Mueller-Hinton broth, 96-well plate, CLSI-based, maximum test concentration 128 μg/mL
[18] = Staphylococcus haemolyticus LJH9, drug-resistant poultry pathogen, two-fold serial dilution, Mueller-Hinton broth, 96-well plate, CLSI-based, maximum test concentration 128 μg/mL
[19] = clinical drug-resistant Klebsiella pneumoniae 15580, two-fold serial dilution, Mueller-Hinton broth, 96-well plate, CLSI-based, maximum test concentration 128 μg/mL
[20] = Enterococcus faecalis, ATCC29212
[21] = Enterococcus gallinarum, GALLINARUM
[22] = Staphylococcus aureus, ATCC29213
[23] = Staphylococcus haemolyticus, LJH9

| Compound | MIC [1, 8] [µg/mL] | MIC [3, 13] [µg/mL] | Gram positive antibacterial activity for desotamides (in words) (Gram-positive pathogens; summary) | MIC ([1]; methicillin-resistant shhsE1) [µg/mL] | MIC (Bacillus subtilis BS01; BS01) [µg/mL] | MIC ([2]; ATCC 29212) [µg/mL] | MIC (MRSA 16339; 16339) [µg/mL] | MIC (MRSA 16162; 16162) [µg/mL] | MIC [3] [µg/mL] | MIC (MRSA 745524; 745524) [µg/mL] | MIC ([4]; ATCC 29213) [µg/mL] | MIC [5] [µg/mL] | MIC (Micrococcus luteus ML01; ML01) [µg/mL] | MIC [6] [µg/mL] | MIC [7]; 15580 [µg/mL] | further results |
| --- | --- | --- | --- | --- | --- | --- | --- | --- | --- | --- | --- | --- | --- | --- | --- | --- |
| cyclo(Asn-Ile-D-Leu-Leu-Trp-D-Arg) (head to tail) [Compound 19, Desotamide A0] | 64 | >128 | Slightly less active than 1 |  |  |  |  |  |  |  |  |  |  |  |  | MIC (Bacillus subtilis BS01; [9]): 32 µg/mL; MIC [2, 10]: 128 µg/mL; MIC (MRSA 16339; [11]): 128 µg/mL; MIC (MRSA 16162; [12]): 64 µg/mL; MIC (MRSA 745524; [14]): 64 µg/mL; MIC [4, 15]: 64 µg/mL; MIC [5, 16]: 32 µg/mL; MIC (Micrococcus luteus ML01; [17]): 32 µg/mL; MIC [6, 18]: 64 µg/mL; MIC [7, 19]: >128 µg/mL |
| CC[C@@H](C)[C@@H]1NC(=O)[C@H](CC(N)=O)NC(=O)[C@@H](Cc2c[nH]cn2)NC(=O)[C@H](Cc2c[nH]c3ccccc23)NC(=O)[C@H](CC(C)C)NC(=O)[C@@H](CC(C)C)NC1=O [Compound 12, Desotamide A3] (cyclo(LW[dH]N[aIle][dL])) |  |  | Inactive | >128 | >128 | >128 | >128 | >128 | >128 | >128 | >128 | >128 | >128 | >128 | >128 |  |
| CC(C)C[C@@H]1NC(=O)[C@H](Cc2c[nH]c3ccccc23)NC(=O)[C@@H](CCCCN)NC(=O)[C@H](CC(N)=O)NC(=O)[C@H](C(C)C)NC(=O)[C@@H](CC(C)C)NC1=O [Compound 9, Wollamide B2] (cyclo([dK]WL[dL]VN)) | 32 (≈ 42.4 µM) | 128 (≈ 170 µM) |  |  | 16 (≈ 21.2 µM) | 64 (≈ 84.9 µM) | 32 (≈ 42.4 µM) | 32 (≈ 42.4 µM) |  | 32 (≈ 42.4 µM) | 32 (≈ 42.4 µM) | 16 (≈ 21.2 µM) | 16 (≈ 21.2 µM) | 32 (≈ 42.4 µM) | >128 | fold increase of anti-Gram-positive activity compared to wollamide B (7) (Gram-positive pathogens; Gram-positive bacteria): 2–4 folds; Gram positive antibacterial activity for wollamides (in words) (Gram-positive pathogens; summary, Figure 3): 2–4-Fold more active than 7 |
| CC[C@@H](C)[C@@H]1NC(=O)[C@H](CC(N)=O)NC(=O)[C@@H](CCCNC(=N)N)NC(=O)[C@H](Cc2c[nH]c3ccccc23)NC(=O)[C@H](CC(C)C)NC(=O)[C@@H](CC(C)C)NC1=O [Compound 10, Desotamide A1] (cyclo(LW[dR]N[aIle][dL])) |  |  | Inactive | >128 | >128 | >128 | >128 | >128 | >128 | >128 | >128 | >128 | 64 (≈ 80.4 µM) | >128 | >128 |  |
| CC(C)C[C@@H]1NC(=O)[C@H](CC(N)=O)NC(=O)CNC(=O)[C@H](Cc2c[nH]c3ccccc23)NC(=O)[C@H](CC(C)C)NC(=O)[C@@H](CC(C)C)NC1=O [Compound 16, Desotamide A7] (cyclo(NL[dL]LWG)) | >128 |  | Inactive |  | >128 | >128 | >128 | >128 | >128 | >128 | >128 | >128 | >128 | >128 | >128 | MIC values against Gram-positive pathogens (summary over the panel) (Gram-positive pathogens): > 128 µg/mL |
| CC1(C)S[C@@H]2[C@H](NC(=O)[C@H](N)c3ccccc3)C(=O)N2[C@H]1C(=O)O [Amp, ampicillin, reference compound] |  |  |  |  |  |  |  |  |  |  |  |  |  |  |  | MIC ([1]; Staphylococcus aureus, MRSA): 64 µg/mL (≈ 183 µM); MIC (Bacillus subtilis BS01; Bacillus subtilis, BS01): < 0.0625 µg/mL; MIC [2, 20]: 4 µg/mL (≈ 11.4 µM); MIC (MRSA 16339; Staphylococcus aureus, MRSA): 64 µg/mL (≈ 183 µM); MIC (MRSA 16162; Staphylococcus aureus, MRSA): 32 µg/mL (≈ 91.6 µM); MIC [3, 21]: 2 µg/mL (≈ 5.72 µM); MIC (MRSA 745524; Staphylococcus aureus, MRSA): 16 µg/mL (≈ 45.8 µM); MIC [4, 22]: 1 µg/mL (≈ 2.86 µM); MIC ([5]; Staphylococcus simulans, LJH13): 0.25 µg/mL (≈ 0.715 µM); MIC (Micrococcus luteus ML01; Micrococcus luteus, ML01): 0.25 µg/mL (≈ 0.715 µM); MIC [6, 23]: 16 µg/mL (≈ 45.8 µM) |
| CC[C@H](C)[C@@H]1NC(=O)[C@H](CC(N)=O)NC(=O)[C@@H](Cc2c[nH]cn2)NC(=O)[C@H](Cc2c[nH]c3ccccc23)NC(=O)[C@H](CC(C)C)NC(=O)[C@@H](CC(C)C)NC1=O [Compound 14, Desotamide A5] (cyclo(I[dL]LW[dH]N)) |  |  | 2-Fold less active than 1 | 64 (≈ 82.4 µM) | 64 (≈ 82.4 µM) | 64 (≈ 82.4 µM) | 64 (≈ 82.4 µM) | 64 (≈ 82.4 µM) | 128 (≈ 165 µM) | 64 (≈ 82.4 µM) | 64 (≈ 82.4 µM) | 64 (≈ 82.4 µM) | 64 (≈ 82.4 µM) | 64 (≈ 82.4 µM) | >128 | fold less potent MIC value compared to 1 (Gram-positive pathogens; Gram-positive bacteria, generally): 2 fold |
| cyclo(Asn-Ile-D-Leu-Leu-Trp-D-His) (head to tail) [Compound 18, Desotamide A9] | >128 | >128 | Inactive |  |  |  |  |  |  |  |  |  |  |  |  | MIC (Bacillus subtilis BS01; [9]): >128 µg/mL; MIC [2, 10]: >128 µg/mL; MIC (MRSA 16339; [11]): >128 µg/mL; MIC (MRSA 16162; [12]): >128 µg/mL; MIC (MRSA 745524; [14]): >128 µg/mL; MIC [4, 15]: >128 µg/mL; MIC [5, 16]: >128 µg/mL; MIC (Micrococcus luteus ML01; [17]): >128 µg/mL; MIC [6, 18]: >128 µg/mL; MIC [7, 19]: >128 µg/mL; MIC values against Gram-positive pathogens (summary over the panel) (Gram-positive pathogens): > 128 µg/mL |
| CC(C)C[C@@H]1NC(=O)[C@H](Cc2c[nH]c3ccccc23)NC(=O)[C@@H](CCCCN)NC(=O)[C@H](CC(N)=O)NC(=O)[C@H](CC(C)C)NC(=O)[C@@H](CC(C)C)NC1=O [Compound 17, Desotamide A8] (cyclo([dK]WL[dL]LN)) | 64 (≈ 83.3 µM) |  | Slightly less active than 1 |  | 32 (≈ 41.7 µM) | 128 (≈ 167 µM) | 64 (≈ 83.3 µM) | 64 (≈ 83.3 µM) | >128 | 32 (≈ 41.7 µM) | 32 (≈ 41.7 µM) | 32 (≈ 41.7 µM) | 16 (≈ 20.8 µM) | 64 (≈ 83.3 µM) | >128 |  |
| CN[C@H](CC(C)C)C(=O)N[C@H]1C(=O)N[C@@H](CC(N)=O)C(=O)N[C@H]2C(=O)N[C@H]3C(=O)N[C@H](C(=O)N[C@H](C(=O)O)c4cc(O)cc(O)c4-c4cc3ccc4O)[C@H](O)c3ccc(c(Cl)c3)Oc3cc2cc(c3O[C@@H]2O[C@H](CO)[C@@H](O)[C@H](O)[C@H]2O[C@H]2C[C@](C)(N)[C@H](O)[C@H](C)O2)Oc2ccc(cc2Cl)[C@H]1O [Van, vancomycin, reference compound] |  |  |  |  |  |  |  |  |  |  |  |  |  |  |  | MIC ([1]; Staphylococcus aureus, MRSA): 0.5 µg/mL (≈ 0.345 µM); MIC (Bacillus subtilis BS01; Bacillus subtilis, BS01): 0.125 µg/mL (≈ 0.0863 µM); MIC [2, 20]: 4 µg/mL (≈ 2.76 µM); MIC (MRSA 16339; Staphylococcus aureus, MRSA): 0.25 µg/mL (≈ 0.173 µM); MIC (MRSA 16162; Staphylococcus aureus, MRSA): 0.5 µg/mL (≈ 0.345 µM); MIC [3, 21]: 8 µg/mL (≈ 5.52 µM); MIC (MRSA 745524; Staphylococcus aureus, MRSA): 0.5 µg/mL (≈ 0.345 µM); MIC [4, 22]: 0.5 µg/mL (≈ 0.345 µM); MIC ([5]; Staphylococcus simulans, LJH13): 0.25 µg/mL (≈ 0.173 µM); MIC (Micrococcus luteus ML01; Micrococcus luteus, ML01): 0.25 µg/mL (≈ 0.173 µM); MIC [6, 23]: 2 µg/mL (≈ 1.38 µM) |
